# Experimental data from US20130261133A1, “Therapeutic Compounds for Protozoal and Microbial Infections and Cancer” (THE UNIVERSITY OF MONTANA, priority 2012, published 2013).
# Values joined by “and” are separate entries in the source; they are usually repeats but may differ in a detail not shown here. Equal values may be shown once. Read-outs that look alike come from different tables or passages of the source.
# Tests used:
# [1] = tested on: P. falciparum clone W2/Indochina; assay: In vitro malaria assay, [3H]-hypoxanthine incorporation; type: cell-based; details: Plasmodium falciparum, W2, 72 h, read-out: IC50 Plasmodium
# Method: a. In vitro Parasite Culturing: P. falciparum clone W2/Indochina was grown in continuous culture using RPMI 1640 media containing 10% heat-inactivated type A+ human plasma, sodium bicarbonate (2.4 g/L), HEPES (5.94 g/L) and 4% washed human type A+ erythrocytes. Cultures were gassed with a 90% N2, 5% O2 and 5% CO2 mixture followed by incubation at 37° C. b. Assay Preparation: Test compounds at 5 mg/mL in DMSO were diluted 1:500 and then serially diluted in duplicate over 11 concentrations. P. falciparum cultures with >70% ring stage parasites were diluted to 0.5-0.7% parasitemia and 1.5% hematocrit in RPMI 1640 media. In 96-well plates a volume of 90 μl/well of parasitized erythrocytes was added on top of 10 μL/well of the test compound. A separate plate containing chloroquine, dihydroartemisinin and atovaquone was added to each set of assay plates as control drugs. A Beckman Coulter Biomek 3000 was used to dispense test compounds, control drugs and parasitized erythrocytes into the microtiter plates. Positive and negative controls were included in each plate. Positive controls consisted of parasitized erythrocytes and negative controls consisted of non-parasitized erythrocytes at 1.5% hematocrit in RPMI 1640 media. Assay plates were placed into a modulator incubator chamber and equilibrated with 90% N2, 5% O2 and 5% CO2 mixture then incubated at 37° C. for 48 hours. After 48 hours, approximately 0.05 μCi of [^3H]-hypoxanthine monohydrochloride was added to each well of the assay plates. Plates were put back into the modulator incubation chamber, gassed with the 90% N2, 5% O2 and 5% CO2 mixture then incubated at 37° C. for an additional 24 hours. After 72 hours total incubation time the plates were frozen at −80° C. until later processed for parasite growth determinations. c. Assay Plate Processing: Assay plates were harvested using a Perkin Elmer FilterMate Harvester. The incorporation of [^3H]-hypoxanthine into nucleic acid was measured using a Perkin Elmer Topcount NXT Microplate Scintillation & Luminescence Counter. d. Data Analysis: Data analysis was performed using a custom database manager (Dataspects, Inc). Nonlinear regression analysis was used to calculate EC50.
# [2] = tested on: Leishmania donovani in infected macrophages; details: Senn et al. 2007; read-out: IC50 against Leishmania donovani in infected macrophages; cited from earlier work
# [3] = tested on: Leishmania amazonensis; assay: Antileishmanial assay, Leishmania in infected macrophages (L. amazonensis); details: for IC50: Leishmania amazonensis, Macrophage
# [4] = tested on: E. faecalis; assay: MIC broth microdilution, Alamar Blue; type: cell-based; details: minimum inhibitory concentration
# [5] = tested on: B. anthracis; type: cell-based; details: minimum inhibitory concentration
# [6] = tested on: C. albicans; assay: MIC broth microdilution, Alamar Blue; type: cell-based; details: minimum inhibitory concentration
# [7] = tested on: C. glabrata; assay: MIC broth microdilution, Alamar Blue; type: cell-based; details: minimum inhibitory concentration
# [8] = tested on: leishmaniasis (LV82 PM infection), liver parasitemia; assay: In vivo efficacy: liver parasitemia in BALB/c mice with leishmaniasis; details: 10 mg/kg i.p.; for LDU mean ± SD: group mean, n=4; for % Reduction (Average) in liver parasitemia: infected BALB/c mice; for # of amastigotes per 200 nuclei: liver; for # of amastigotes per 200 nuclei / LDU: individual mice; for LDU: total liver parasitemia
# Method: The following protocols were used to prepare the various treatments described in Table 2: • a. Miltefosine ([…] stock solution in sterile PBS): 7.5 mg miltefosine was weighed and put in a eppendorf tube, then 0.75 mL of sterile PBS was added. After vortexing, a clear solution was formed. Make 1 mg/mL solution daily by diluting 100 μL of 10 mg/mL miltefosine solution in 900 μL sterile PBS. • b. Vehicle control: 5% (v/v) DMSO, 50% (v/v) PEG 400, 10% (v/v) Ethanol, and 35% (v/v) distilled water. • c. Compound 47 (2 mg/mL solution of compound 47 in PEG 400/Ethanol vehicle): […]. Dilute the above solution 1:20 with PEG 400/EtOH/water daily. After vortexing and warming up at 37° C. for 30 min., a clear solution formed. • d. Compound 48 (2 mg/mL solution of compound 48 in PEG 400/Ethanol vehicle): 6.8 mg of compound 48 was dissolved in 0.17 mL of DMSO to make a 40 mg/mL stock solution. After vortexing, a yellowish-brown solution was formed. Diluted the above solution 1:20 with PEG 400/EtOH/water daily. After vortexing a clear solution formed. • e. Compound 50 (2 mg/mL solution of compound 50 in PEG 400/Ethanol vehicle): 8.4 mg of compound 50 was dissolved in 0.21 mL of DMSO to make a 40 mg/mL stock solution. After vortexing, a dark yellowish-brown solution was formed. Diluted the above solution 1:20 with PEG 400/EtOH/water. After vortexing a clear solution formed.
# (§1) Compounds 47, 48, and 50 were then evaluated in animal studies with BALB/c mice with leishmaniasis. Compounds were delivered via i.p. injection at 10 mg/kg, with untreated, vehicle, and miltefosine controls as described in Table 2. […] Miltefosine, the only oral treatment currently available to treat leishmaniasis in humans, was also evaluated in the BALB/c mice for comparison purposes.
# [9] = tested on: HepG2 cells; assay: Cytotoxicity against human liver (HepG2) cells, Alamar Blue; type: cell-based
# Method: Several of these analogues were also evaluated for cytotoxicity against human liver (HepG2) cells. Of particular interest was that compounds 47 and 48 were approximately an order of magnitude less cytotoxic as compared to compound 1.
# Adherent cell lines were maintained in Eagle's Minimal Essential Media (Sigma-Aldrich, St. Louis, Mo., USA) with 2 mM glutamine and Earle's Balanced Salt Solution (HyClone, Logan, Utah, USA) adjusted to contain 1.5 g/L sodium bicarbonate, 0.1 mM non-essential amino acids, 1 mM sodium pyruvate and 10% fetal calf serum. Fetal calf serum used in these assays was lot matched throughout. All cultures were maintained under a humidified 5% CO2 atmosphere at 37° C., had media refreshed twice weekly and were subcultured by trypsinization and resuspension at a ratio of 1:5 each week. Toxicity assays were conducted between passages 10-20. Target compound toxicity was measured by incubating the test compound with the cells for 4 hours, washing the cells and finally treating the cells with Alamar Blue. After 12-24 hours, the fluorescence of the reduced dye was measured. Fluorescence intensity as a function of test compound concentration was fit to the Fermi equation, using non-linear least squares regression analysis, to estimate IC50 values.
# [10] = tested on: P. aeruginosa; assay: MIC broth microdilution, Alamar Blue; type: cell-based; details: minimum inhibitory concentration
# [11] = tested on: S. pyogenes; assay: MIC broth microdilution, Alamar Blue; type: cell-based; details: minimum inhibitory concentration
# [12] = tested on: Leishmania donovani; assay: Antileishmanial assay, Leishmania in infected macrophages (L. donovani); details: for Selectivity Index: IC50 for HepG2 cells/IC50 for Leishmania donovani; for IC50: Leishmania donovani, Macrophage, read-out: IC50 Leishmania in infected macrophages
# [13] = Body and organ weights of infected, treated BALB/c mice; type: in vivo; details: for Body weight / Mean body weight of mice Post-treatment: 10 mg/kg i.p.; for Body weight: individual mice, Table 4; for Mean body weight of mice Post-treatment / Mean body weight of mice Pre-treatment: group mean; for Mean body weight of mice Pre-treatment: pre-treatment (baseline)
# Method: as §1
# [14] = tested on: B. subtilis; assay: MIC broth microdilution, Alamar Blue; type: cell-based; details: minimum inhibitory concentration
# [15] = tested on: S. aureus 13709; assay: MIC broth microdilution, Alamar Blue; type: cell-based; details: minimum inhibitory concentration
# [16] = read-out: IC50 Leishmania in infected macrophages
# [17] = read-out: IC50 against Leishmania amazonensis
# [18] = HepG2, read-out: IC50 against the HepG2 cell line
# [19] = HepG2, read-out: IC50 mammalian HepG2 cells
SMILES,IC50 [1],"IC50 [3, 16]","IC50 [3, 17]",MIC E. faecalis [4],MIC B. anthracis [5],MIC C. albicans [6],MIC C. glabrata [7],LDU mean ± SD [8],% Reduction (Average) in liver parasitemia [8],# of amastigotes per 200 nuclei [8],LDU [8],"IC50 [9, 18]","IC50 [9, 19]",MIC P. aeruginosa [10],MIC S. pyogenes [11],Selectivity Index [12],IC50 [12],Body weight [13],MIC B. subtilis [14],MIC S. aureus [15],other results
"C=CC(C#CC#CC(O)CCCCCCCCC)OC(C)=O [(S,S)-1, 8-hydroxyheptadeca-1-ene-4,6-diyn-3-yl acetate, reference compound]",0.27 µg/mL,1.28 µM,1.28 µM,,,,,,,,,,,,,,,,,,IC50 [2]: 0.32 µM
"C=C[C@@H](C#CC#C[C@@H](CCCCCCCCC)NC(=O)c1ccccc1)OC(C)=O [Compound 47, (3S,8R)-8-benzamidoheptadeca-1-en-4,6-diyn-3-yl acetate]",4.85 µg/mL,,,>1000,>1000,>1000,>1000,2979.6,26.0%,596 and 543 and 595 and 582,2960.3 and 2834.7 and 2961.0 and 3162.3,486 ± 14 µM,486 ± 14 µM,>1000,>1000,"14,000",0.035 µM,18.3 g (2×) and 19.5 g and 18.2 g,>1000,>1000,% Reduction (Average) in liver parasitemia ([8]; listed as compound 47): 26%; Mean body weight of mice Post-treatment [13]: 18.6 g; Mean body weight of mice Pre-treatment [13]: 19.2 g
"C=C[C@@H](C#CC#C[C@@H](CCCCCCCCC)NCCCC)OC(C)=O [Compound 48, (3S,8R)-8-(butylamino)heptadeca-1-en-4,6-diyn-3-yl acetate]",5.72 µg/mL,,,500,250,1000,>1000,2721.9,32.4%,536 and 529 and 498 and 476,2541.4 and 2830.2 and 2913.1 and 2603.0,342 ± 46 µM,342 ± 46 µM,>1000,250,"10,000",0.034 µM,17.2 g and 19.2 g and 19.8 g and 19.0 g,125,500,% Reduction (Average) in liver parasitemia ([8]; listed as compound 48): 32%; Mean body weight of mice Post-treatment [13]: 18.8 g; Mean body weight of mice Pre-treatment [13]: 19.3 g
"C=C[C@@H](C#CC#C[C@H](O)CCCCCCCCC)OC(C)=O [Compound 1, (3S,8R)-8-hydroxyheptadeca-1-en-4,6-diyn-3-yl acetate]",0.341 µg/mL,0.627 µM,0.63 µM,32,4,>1000,>1000,,,,,35 ± 3 µM,35 ± 3 µM,>1000,8,,,,8,>1000,Selectivity Index ([3]; IC50 for HepG2 cells/IC50 for Leishmania amazonensis): 60
